# Assay results reported in patent US12692264B2, “Pyrimidine or pyridine derivative, preparation method therefor, and application thereof in pharmacy” (ABBISKO THERAPEUTICS CO., LTD., priority 2021, dated 2026).
# Legend:
# Assay type in all cases: cell-based
# [1] = test system: A431 (EGFR-WT); assay: Cell proliferation study (CellTiter-Glo, 72 hrs), A431; details: Homo sapiens, A-431, A431 cells, CTG, * = average of multiple measurements
# Procedure: (§1) (I) Reagents and Materials
# (§2) • Fetal bovine serum FBS (GBICO, Cat #10099-141); • CellTiter-Glo® luminescent cell viability assay kit (Promega, Cat #G7572); • Black transparent flat-bottom 96-well plate (Corning®, Cat #3603). (II) Instruments • SpectraMax multi-label microplate reader MD, 2104-0010A; • Carbon dioxide incubator, Thermo Scientific 3100 series; • Biological safety cabinet, Thermo Scientific, 1300 series model A2; • Inverted microscope, Olympus, CKX41SF; • Siemens refrigerator KK25E76T1. (III) Cell Lines and Culture Conditions
# (§3) (IV) Experimental Procedures 1. Cell Culture and Inoculation: • (1) Cells in the logarithmic growth phase were harvested and counted using a […]. The cell viability was determined by the trypan blue dye exclusion method to ensure cell viability above 90%. • (2) The cell concentration was adjusted to reach a desired final density; 90 μL of cell suspension was added to a 96-well plate. • (3) The cells were incubated overnight in the 96-well plate at 37° C., 5% CO2 and with 95% humidity. 2. T0 Benchmark Data: • (1) 10 μL of PBS was added to each well of the TO plate containing the cells. • (2) The CTG reagent was thawed and the cell plate was equilibrated to room temperature for 30 min. • (3) An equal volume of CTG solution was added to each well. • (4) The cells were lysed by shaking on an orbital shaker for 5 min. • (5) The cell plate was left to stand at room temperature for 20 min to stabilize the fluorescence signal. • (6) The fluorescence signal values of TO were read. 3. Dilution and Addition of Compounds • (1) According to the compound information table, a corresponding volume of DMSO was added to the corresponding compound powder to prepare a 10 mM stock solution. • (2) A 1000-fold, 3.16-fold-diluted compound solution was prepared. • (3) The 1000× diluted compound solution was diluted 100-fold with PBS to prepare a 10-fold compound solution with a maximum concentration of 10 μM, including 9 concentrations, with 3.16-fold dilution, and 10 μL of the medicament solution was added to each well of the 96-well plate to seed the cells. Triplicate wells were set for each compound concentration, with a final concentration of DMSO being 0.1%. • (4) The cells were placed in the 96-well plate containing the medicament at 37° C., 5% CO2 and with 95% humidity, and cultured for 72 hrs before CTG analysis. 4. Fluorescence Signal Reading • (1) The CTG reagent was thawed and the cell plate was equilibrated to room temperature for 30 min. • (2) An equal volume of CTG solution was added to each well. • (3) The cells were lysed by shaking on an orbital shaker for 5 min. • (4) The cell plate was left to stand at room temperature for 20 min to stabilize the fluorescence signal. • (5) The fluorescence values were read. 5. Data Processing
# (§4) Data were analyzed using GraphPad Prism 7.0 software and fitted data were regressed using non-linear S-curves to obtain dose-response curves from which IC50 values (in nM) were calculated.
# [2] = target: Ba/F3 EGFR-V769_D770insASV (Homo sapiens, UniProt P00533, DUP767-769, cells depend on it); assay: Cell proliferation study (CellTiter-Glo, 72 hrs), Ba/F3 EGFR-V769_D770insASV; details: CTG, * = average of multiple measurements, read-out: Ba/F3 EGFR-V769_D770insASV IC50
# Chain of Ba/F3 EGFR-V769_D770insASV (P00533 with tags, fused parts or gaps DUP767-769): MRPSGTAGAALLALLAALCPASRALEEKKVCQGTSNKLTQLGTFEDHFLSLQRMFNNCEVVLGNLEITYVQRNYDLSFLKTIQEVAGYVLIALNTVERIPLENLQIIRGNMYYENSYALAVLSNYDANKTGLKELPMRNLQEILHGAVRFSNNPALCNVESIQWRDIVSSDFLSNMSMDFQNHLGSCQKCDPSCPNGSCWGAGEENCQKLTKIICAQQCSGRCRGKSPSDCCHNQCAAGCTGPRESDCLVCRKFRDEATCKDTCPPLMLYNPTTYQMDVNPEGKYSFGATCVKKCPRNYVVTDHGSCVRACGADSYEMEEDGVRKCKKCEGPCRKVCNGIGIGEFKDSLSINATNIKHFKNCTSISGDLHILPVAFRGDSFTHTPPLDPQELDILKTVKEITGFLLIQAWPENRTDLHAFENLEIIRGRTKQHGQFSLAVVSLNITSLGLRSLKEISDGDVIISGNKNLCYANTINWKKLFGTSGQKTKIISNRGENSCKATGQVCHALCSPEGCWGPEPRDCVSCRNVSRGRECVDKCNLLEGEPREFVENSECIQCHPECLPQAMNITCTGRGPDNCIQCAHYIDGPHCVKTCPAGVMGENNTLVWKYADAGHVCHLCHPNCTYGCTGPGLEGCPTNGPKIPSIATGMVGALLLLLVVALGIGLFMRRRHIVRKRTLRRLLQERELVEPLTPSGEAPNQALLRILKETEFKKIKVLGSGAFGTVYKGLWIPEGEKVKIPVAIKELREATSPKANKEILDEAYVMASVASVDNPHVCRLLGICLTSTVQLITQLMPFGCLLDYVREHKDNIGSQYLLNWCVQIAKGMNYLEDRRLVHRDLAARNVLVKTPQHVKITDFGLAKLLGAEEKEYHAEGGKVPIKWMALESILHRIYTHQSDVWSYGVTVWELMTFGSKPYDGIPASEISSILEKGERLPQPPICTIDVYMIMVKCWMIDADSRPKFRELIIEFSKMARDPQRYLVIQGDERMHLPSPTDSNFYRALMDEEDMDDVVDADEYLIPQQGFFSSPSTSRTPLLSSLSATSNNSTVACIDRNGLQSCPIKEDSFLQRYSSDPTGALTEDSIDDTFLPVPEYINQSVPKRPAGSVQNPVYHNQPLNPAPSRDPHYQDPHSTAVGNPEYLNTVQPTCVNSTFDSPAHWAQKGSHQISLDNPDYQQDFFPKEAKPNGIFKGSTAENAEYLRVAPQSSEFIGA
# Procedure: as §1, §2, §3, §4
# [3] = target: Ba/F3 EGFR-D770-N771ins_SVD (Homo sapiens, UniProt P00533, DUP768-770, cells depend on it); assay: Cell proliferation study (CellTiter-Glo, 72 hrs), Ba/F3 EGFR-D770-N771ins_SVD; details: CTG, * = average of multiple measurements, read-out: Ba/F3 EGFR-D770-N771ins_SVD IC50
# Chain of Ba/F3 EGFR-D770-N771ins_SVD (P00533 with tags, fused parts or gaps DUP768-770): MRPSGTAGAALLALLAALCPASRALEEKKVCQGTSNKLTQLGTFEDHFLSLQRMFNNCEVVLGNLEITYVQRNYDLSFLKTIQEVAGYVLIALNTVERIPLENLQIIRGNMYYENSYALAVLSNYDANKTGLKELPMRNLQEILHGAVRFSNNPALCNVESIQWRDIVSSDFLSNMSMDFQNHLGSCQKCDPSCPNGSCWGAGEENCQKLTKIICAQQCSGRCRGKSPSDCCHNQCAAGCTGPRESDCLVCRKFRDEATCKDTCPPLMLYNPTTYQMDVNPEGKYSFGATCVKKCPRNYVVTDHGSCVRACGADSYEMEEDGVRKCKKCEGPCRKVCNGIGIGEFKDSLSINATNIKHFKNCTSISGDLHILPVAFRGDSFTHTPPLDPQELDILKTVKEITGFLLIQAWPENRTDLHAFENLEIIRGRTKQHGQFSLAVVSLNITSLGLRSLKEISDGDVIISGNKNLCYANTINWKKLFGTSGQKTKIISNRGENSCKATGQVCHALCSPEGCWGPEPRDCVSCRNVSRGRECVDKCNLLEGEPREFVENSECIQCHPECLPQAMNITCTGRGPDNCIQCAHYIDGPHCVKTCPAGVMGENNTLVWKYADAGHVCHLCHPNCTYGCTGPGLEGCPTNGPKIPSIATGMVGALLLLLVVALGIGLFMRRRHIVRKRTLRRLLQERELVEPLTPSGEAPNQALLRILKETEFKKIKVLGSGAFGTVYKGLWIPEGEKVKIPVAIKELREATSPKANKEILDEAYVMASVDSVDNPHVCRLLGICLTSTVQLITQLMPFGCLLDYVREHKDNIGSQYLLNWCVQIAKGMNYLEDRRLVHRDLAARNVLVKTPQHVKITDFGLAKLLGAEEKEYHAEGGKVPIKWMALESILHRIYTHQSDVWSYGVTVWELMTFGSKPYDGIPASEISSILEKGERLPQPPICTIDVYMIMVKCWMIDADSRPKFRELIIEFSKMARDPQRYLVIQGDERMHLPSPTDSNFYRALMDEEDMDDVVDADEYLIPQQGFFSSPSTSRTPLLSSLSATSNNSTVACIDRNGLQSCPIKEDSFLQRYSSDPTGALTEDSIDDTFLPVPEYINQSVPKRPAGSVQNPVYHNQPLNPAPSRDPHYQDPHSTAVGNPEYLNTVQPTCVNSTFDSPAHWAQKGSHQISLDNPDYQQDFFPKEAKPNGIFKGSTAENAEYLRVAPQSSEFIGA
# Procedure: as §1, §2, §3, §4
SMILES,IC50 [1] [nM],GI50 [2] [nM],GI50 [3] [nM]
"C=CC(=O)Nc1cc(Nc2ncc(C(=O)OC(C)C)c(N3CC(C)(C)c4cc(F)c(F)cc43)n2)c(OC)cc1N(C)CCN(C)C [Example 91, isopropyl 2-((5-acrylamido-4-((2-(dimethylami-no)ethyl)(methyl)amino)-2-methoxy-phenyl)amino)-4-(5,6-difluoro-3,3-dimethylindolin-1-yl)pyrimidine-5-carboxylate]",1080,32.2,37.5
"C=CC(=O)Nc1cc(Nc2ncc(C(=O)OC(C)C)c(N3CC4(CC4)c4nc(C)ccc43)n2)c(OC)cc1N1CC[C@@H](N(C)C)C1 [Example 26, isopropyl (R)-2-((5-acrylamido-4-(3-(dimethyl-amino)pyrrolidin-1-yl)-2-methoxy-phenyl)amino)-4-(5′-methyl-spiro(cyclopropane-1,3′-pyrrolo[3,2-b]pyridin)-1′(2′H)-yl)pyrimidine-5-carboxylate]",363,52.8,29.7
"C=CC(=O)Nc1cc(Nc2ncc(C(=O)OC(C)C)c(N3CC(C)(C)c4nc(C=C)ccc43)n2)c(OC)cc1N(C)CCN(C)C [Example 20, isopropyl 2-((5-acrylamido-4-((2-(dimethylami-no)ethyl)(methyl)amino)-2-methoxy-phenyl)amino)-4-(3,3-dimethyl-5-vinyl-2,3-dihydro-1H-pyrrolo[3,2-b]pyridin-1-yl)pyrimidine-5-carboxylate]",746,66.6,34.3
"C=CC(=O)Nc1cc(Nc2ncc(C(=O)OC(C)C)c(N3CC(C)(C)c4nc(C)ccc43)n2)c(OC)cc1N1CCC[C@H](N(C)C)C1 [Example 60, isopropyl (S)-2-((5-acrylamido-4-(3-(dimethyl-amino)piperidin-1-yl)-2-methoxy-phenyl)amino)-4-(3,3,5-trimethyl-2,3-dihydro-1H-pyrrolo[3,2-b]pyridin-1-yl)pyrimidine-5-carboxylate]",761,37.9,31.9
"C=CC(=O)Nc1cc(Nc2ncc(C(=O)OC(C)C)c(N3CC(C)(C)c4ncccc43)n2)c(OC(F)F)cc1N(C)CCN(C)C [Example 3, isopropyl 2-((5-acrylamido-2-(difluoromethoxy)-4-((2-(dimethylamino)ethyl)(methyl)ami-no)phenyl)amino)-4-(3,3-dimethyl-2,3-dibydro-1H-pyrrolo[3,2-b]pyridin-1-yl)pyrimidine-5-carboxylate]",371,33.1,23.2
"[2H]C([2H])([2H])Oc1cc(N(CCN(C([2H])([2H])[2H])C([2H])([2H])[2H])C([2H])([2H])[2H])c(NC(=O)C=C)cc1Nc1ncc(C(=O)OC(C)C)c(N2CC(C)(C)c3nc(C)ccc32)n1 [Example 72, isopropyl 2-((5-acrylamido-4-((2-(bis(methyl-d3)amino)ethyl)(methyl-d3)amino)-2-(methoxy-d3)phenyl)amino)-4-(3,3,5-trimethyl-2,3-dihydro-1H-pyrrolo[3,2-b]pyridin-1-yl)pyrimidine-5-carboxylate]",120,35.3,24.8
"C=CC(=O)Nc1cc(Nc2ncc(C(=O)OC(C)C)c(N3CC(C)(C)c4nc(C)ccc43)n2)c(OC)nc1N1C[C@@H](F)C[C@@H]1CN(C)C [Example 59, isopropyl 2-((5-acrylamido-6-((2R,4S)-2-((dimethylamino)methyl)-4-fluoro-pyrrolidin-1-yl)-2-methoxypyridin-3-yl)amino)-4-(3,3,5-trimethyl-2,3-dihydro-1H-pyrrolo[3,2-b]pyridin-1-yl)pyrimidine-5-carboxylate]",150,18.4,18.4
"[2H]C([2H])([2H])N(CCN(C([2H])([2H])[2H])C([2H])([2H])[2H])c1cc(OC)c(Nc2ncc(C(=O)OC(C)C)c(N3CC(C)(C)c4nc(C)ccc43)n2)cc1NC(=O)C=C [Example 77, isopropyl 2-((5-acrylamido-4-((2-(bis(methyl-d3)amino)ethyl)(methyl-d3)amino)-2-methoxyphenyl)amino)-4-(3,3,5-tri-methyl-2,3-dihydro-1H-pyrrolo[3,2-b]pyridin-1-yl)pyrimidine-5-carboxylate]",97.2,32.2,11.7
"C=CC(=O)Nc1cc(Nc2ncc(C(=O)OC(C)C)c(N3CC4(CC4)c4ncccc43)n2)c(OC)cc1N1CCC[C@@H]1CN(C)C [Example 86, isopropyl (R)-2-((5-acrylamido-4-(2-((dimethyl-amino)methyl)pyrrolidin-1-yl)-2-meth-oxyphenyl)amino)-4-(spiro(cyclopro-pane-1,3′-pyrrolo[3,2-b]pyridin)-1′(2′H)-yl)pyrimidine-5-carboxylate]",14.1,8,9.8
"C=CC(=O)Nc1cc(Nc2ncc(C(=O)OC(C)C)c(N3CC4(CC4)c4ncccc43)n2)c(OC)cc1N(C)CCN(C)C [Example 21, isopropyl 2-((5-acrylamido-4-((2-(dimethylami-no)ethyl)(methyl)amino)-2-methoxy-phenyl)amino)-4-(spiro(cyclopropane-1,3′-pyrrolo[3,2-b]pyridin)-1′(2′H)-yl)pyrimidine-5-carboxylate]",404,56.8,24.6
"C=CC(=O)Nc1cc(Nc2ncc(C(=O)OC(C)C)c(N3CC(C)(C)c4nc(C#CC)ccc43)n2)c(OC)cc1N(C)CCN(C)C [Example 30, isopropyl 2-((5-acrylamido-4-((2-(dimethylami-no)ethyl)(methyl)amino)-2-methoxy-phenyl)amino)-4-(3,3-dimethyl-5-(prop-1-yn-1-yl)-2,3-dihydro-1H-pyrrolo[3,2-b]pyridin-1-yl)pyrimidine-5-carboxylate]",557,21.5,7.6
"C=CC(=O)Nc1cc(Nc2ncc(C(=O)OC(C)C)c(N3CC4(CCC4)c4nc(C)ccc43)n2)c(OC)cc1N(C)CCN(C)C [Example 5, isopropyl 2-((5-acrylamido-4-((2-(dimethylami-no)ethyl)(methyl)amino)-2-methoxy-phenyl)amino)-4-(5′-methylspiro(cyclo-butane-1,3′-pyrrolo[3,2-b]pyridin)-1′(2′H)-yl)pyrimidine-5-carboxylate]",516,30.4,15.8
"C=CC(=O)Nc1cc(Nc2ncc(C(=O)OC(C)C)c(N3CC(C)(C)c4cc(F)c(F)cc43)n2)c(OC)cc1N1CCC[C@@H]1CN(C)C [Example 92, isopropyl (R)-2-((5-acrylamido-4-(2-((dimethyl-amino)methyl)pyrrolidin-1-yl)-2-meth-oxyphenyl)amino)-4-(5,6-difluoro-3,3-dimethylindolin-1-yl)pyrimidine-5-carboxylate]",962,27.9,33.2
"C=CC(=O)Nc1cc(Nc2ncc(C(=O)OC(C)C)c(N3CC4(CCC4)c4ncccc43)n2)c(OC(F)F)cc1N(C)CCN(C)C [Example 6, isopropyl 2-((5-acrylamido-2-(difluoromethoxy)-4-((2-(dimethylamino)ethyl)(methyl)ami-no)phenyl)amino)-4-(spiro(cyclo-butane-1,3′-pyrrolo[3,2-b]pyridin)-1′(2′H)-yl)pyrimidine-5-carboxylate]",627,35.1,12.4
"C=CC(=O)Nc1cc(Nc2ncc(C(=O)OC(C)C)c(N3CC(C)(C)c4nc(C)ccc43)n2)c(OC)cc1N(C)CCN1CCCC1 [Example 66, isopropyl 2-((5-acrylamido-2-methoxy-4-(methyl(2-(pyrrolidin-1-yl)ethyl)amino)phenyl)amino)-4-(3,3,5-trimethyl-2,3-dihydro-1H-pyrrolo[3,2-b]pyridin-1-yl)pyrimidine-5-carboxylate]",,27.2,16.9
